# Assay results reported in US20070042976A1, “Method of treating cosmetic and dermatologic conditions by a demethylating agent” (priority 2005, published 2007).
# Marks after values point to notes of the source that are not given here.
# What was measured:
# normal human fibroblasts = assay: Human fibroblasts collagen synthesis assay (14C-proline incorporation, collagenase-labile counts); format: cell-based; design: reduction of the amount of collagen synthesized: dose or concentration left out as unconfirmed; details: for Collagen (DPM/cell) with TGF β 1: with TGF β 1 (10 ng/ml), control 9945 +/− 602; for Collagen (DPM/cell) without TGF β 1: control 5267 +/− 1079
# Method: Human Fibroblasts Collagen Synthesis Assay
# Human fibroblasts were grown in DMEM (10% FCS) in 24-wells plates to approximately 50% confluence. 5-azacytidine (from Sigma) was added for 5 hrs of 37° C. TGF-β1 was added (10 ng/ml) for 2 hours (hrs) at 37° C. Then, L-[U-14C]-proline solution (specific radioactivity 269 mCi/mmol) was added (1.25 μCi/well) and incubated for 20 hrs at 37° C. The cells were then washed with 5 mM proline in PBS and 5 mM proline in 70% methanol and incubated at […] for 20 hrs. […] After 20 hrs, the collagenase treated cultures were centrifuged and a new collagenase solution was added to the cells. The cultures were incubated with the enzyme for an additional 20 hrs. Proline incorporated into protein and released by collagenase treatment is defined as “collagen”. Incorporation of labeled proline into collagen was evaluated by scintillation counting of supernatants. In parallel, the cultures were checked for vitality using a 3-(4, 5-dimethylthiazol-2-yl)-2, 5-diphenyltetrazolium bromide (MTT) reaction. Each concentration of 5-azacytidine was analyzed (n=6), and the effect of 5-azacytidine on collagen synthesis were expressed as averaged DPM per number of viable cells +/− standard deviation.
# Human fibroblasts were grown to about 50% confluence and exposed to medium with or without TGF β.
# [1] = system: Human squamous cell carcinoma line (SCL-1) cells; assay: Cell death in human squamous cell carcinoma line with or without UVB (MTT); format: cell-based; details: for % Cell Death with UV: UV alone 22 +/− 0.1
# Method: Determination of Cell Death in Response to 5-azacytidine in Human Squamous Cell Carcinoma Line
# Human squamous cell carcinoma line (SCL-1) cells were grown in DMEM medium with 10% FCS. 5-azacytidine was added at the indicated concentrations after the cells reached 100% confluence. The cultures were incubated for 24 hrs at 37° C. and then washed in Hepes buffer (pH=7.4) with isotonic salt and exposed to UVB radiation. Cell death was determined using MTT [3-(4, 5-dimethylthiazol-2-yl)-2, 5-diphenyltetrazolium bromide] kit obtained from Sigma. Each concentration of the drug was tested in six wells and the degree of inhibition (vs. controls of untreated cultures) was given as an average (% cell death +/−standard deviation).
# The human squamous cells (SCL-1) were grown to about 50% confluence. The cultures were treated with minimal amount of 5-azacytidine, UV radiation, or the combination and cell viability was quantified. […] The exposure of the cells to UV, in the absence of the drug induced a cytotoxic effect in about 22% of the cells. Together, the combination of both UV and 5-azacytidine induced cell death at about 50% of the cancer cells.
# human fibroblasts = assay: Proliferation of human fibroblasts in culture; format: cell-based; details: previously found by applicant
# collagen type IV gene = details: transformed rat liver cells; cited from earlier work
# alpha 2 collagen gene [2] = details: teratocarcinoma F9 cells; cited from earlier work
# [3] = system: Pro collagen alpha I gene; details: human rhabdomyosarcoma cells; cited from earlier work
# alpha 2 collagen gene [4] = details: resistant cells such as HaCaT, Hela and HepG2; cited from earlier work
# collagen gene expression = details: human cancer cells, including fibrosarcomas and breast carcinoma; cited from earlier work
# pieces of human skin = assay: Incorporation of labeled proline into pieces of human skin (collagen biosynthesis, skin organ culture); details: for Collagen (DPM/mg tissue): control 333
# [5] = Azacytidine 4.8 ug/ml, listed as Azacytidine
smiles,measurement,setting,value
Nc1ncn([C@@H]2O[C@H](CO)[C@@H](O)[C@H]2O)c(=O)n1 [5-azacytidine],Collagen (DPM/cell) with TGF β 1,normal human fibroblasts; Azacytidine 1 μg/ml,8259 +/− 482 DPM/cell
same,Collagen (DPM/cell) without TGF β 1,normal human fibroblasts; Azacytidine 1 μg/ml,5306 +/− 717 DPM/cell
same,Collagen (DPM/cell) with TGF β 1,normal human fibroblasts; Azacytidine 5 μg/ml,6801 +/− 1359* DPM/cell
same,Collagen (DPM/cell) without TGF β 1,normal human fibroblasts; Azacytidine 5 μg/ml,4015 +/− 706* DPM/cell
same,Collagen (DPM/cell) with TGF β 1,normal human fibroblasts; Azacytidine 25 μg/ml,5183 +/− 816* DPM/cell
same,Collagen (DPM/cell) without TGF β 1,normal human fibroblasts; Azacytidine 25 μg/ml,2323 +/− 139* DPM/cell
same,IC50,"normal human fibroblasts; Fibroblast, stated as similar to the IC50 in human skin, read-out: IC50 of collagen biosynthesis in cultured human fibroblasts",~25 µg/mL
same,effect on TGF β upregulation of collagen biosynthesis,normal human fibroblasts; TGF β stimulated fibroblasts,inhibited in a dose dependent manner the ability of TGF β to upregulate collagen biosynthesis
same,reduction of the amount of collagen synthesized,"normal human fibroblasts; concentration of about 25, basal (without TGF β)",approximately 55%
same,effect on basal collagen produced,normal human fibroblasts; without TGF β,inhibited the collagen produced in a dose dependent manner
same,% Cell Death with UV,[1]; Azacytidine 0.53 ug/ml,19 +/− 0.5%
same,% Cell Death without UVB,[1]; Azacytidine 0.53 ug/ml,2 +/− 0.7* %
same,% Cell Death with UV,[1]; Azacytidine 1.6 ug/ml,21 +/− 0.6%
same,% Cell Death without UVB,[1]; Azacytidine 1.6 ug/ml,5 +/− 0.3* %
same,% Cell Death with UV,[1]; Azacytidine 4.8 ug/ml,about 50%
same,% Cell Death with UV,[1]; [5],50 +/− 0.2%
same,% Cell Death without UVB,[1]; Azacytidine 4.8 ug/ml,about 29%
same,% Cell Death without UVB,[1]; [5],29 +/− 13* %
same,IC50,"[1]; Homo sapiens, SCL-1, 5-Azacytidine alone (no UV)",11 µg/mL
same,combined effect of photo damage and drug on viability,[1]; UV plus 5-azacytidine,additive effect
same,effect on proliferation of fibroblasts in culture,human fibroblasts,inhibits the proliferation
same,effect on transcription of collagen type IV gene,collagen type IV gene,increases transcription of the collagen type IV gene
same,effect on transcription of alpha 2 collagen gene,alpha 2 collagen gene [2],induces transcription of alpha 2 collagen gene
same,effect on transcription of Pro collagen alpha I gene,[3],transcriptional activation of the Pro collagen alpha I gene
same,effect on alpha 2 collagen gene,alpha 2 collagen gene [4],reactivated
same,effect on collagen gene expression,collagen gene expression,increased or reactivated collagen gene expression
same,effect on collagen biosynthesis by human skin,pieces of human skin,inhibited collagen biosynthesis in a dose dependent manner
same,% Inhibition of collagen,pieces of human skin; Azacytidine 6.25 ug/ml,40%
same,Collagen (DPM/mg tissue),pieces of human skin; Azacytidine 6.25 ug/ml,199 +/− 34* DPM/mg tissue
same,% Inhibition of collagen,pieces of human skin; Azacytidine 25 ug/ml,48%
same,Collagen (DPM/mg tissue),pieces of human skin; Azacytidine 25 ug/ml,174 +/− 53* DPM/mg tissue
same,% Inhibition of collagen,pieces of human skin; Azacytidine 100 ug/ml,72%
same,Collagen (DPM/mg tissue),pieces of human skin; Azacytidine 100 ug/ml,92 +/− 13* DPM/mg tissue
same,IC50,"pieces of human skin; Homo sapiens, read-out: IC50 of collagen biosynthesis in human skin",~25 µg/mL
